Data on seven compounds can be found in patent publication US12728139B2, “Methods of preparing purified atomic quantum clusters” (NANOGAP SUB-NM-POWDER, S.A., priority 2018, dated 2026).

One test deals with octamer. To be noted: 25° C., ITC and fluorescence; cited from earlier work.
In another test the test system is A549 Luc-C8 cells. The experiment in a line: Luminescent cell viability assay. It is filed as cell-based, human. The settings on record: 24 hours. The protocol:
Data represent mean±SD of 2 independent experiments with 3 replicas per experiment. Mann Whitney test ((*) p<0.01).
After that, treatments were removed and 20 μL of lysis buffer (Promega) added to wells and incubated for 30 minutes, shacking. Lysates were then transferred to 1.5 mL tubes and centrifuged for 15 minutes at high speed.

A further test deals with T1, single nucleosomes (Homo sapiens, UniProt P62805+P68431+Q16778+Q7L7L0).
T1 construct: purchased New England Biolabs, Ipswich, USA
The experiment in a line: Single-nucleosome destabilization, gel shift assay. It is filed as biochemical. The settings on record: etoposide 60 μM or doxorubicin 20 μM 4 hours; Ag3-AQCs 83 ng/mL 30 minutes. (In general: In EMSA bound probe runs differently from free probe, usually more slowly.)

The test system of the next test is A549 cells. Description: Quantification of platinum bound to DNA (ICP-MS) in A549 cells. It is filed as cell-based, human. To be noted: proliferating A549 cells, CDDP 50 μM. The protocol: DNA-bound platinum was assessed as previously described in Comenge et al. PLoS One 2012, 7: e47562. Briefly, 5×10^5 A549, MCF7 or U87-luc cells were seeded in 60 mm diameter plates. […] After the treatment, the cells were washed twice with PBS, trypsinised and centrifuged. The supernatants were removed, and the cell pellets were stored at −20° C. overnight. […] After 24 hours, the animals were sacrificed, and the organs were removed. Small pieces (1-2 mm^3) of tumour (lung) and other organs (heart, liver, kidney, spleen, brain and bone marrow) were separated using a scalpel. From this point, the steps for DNA extraction are common to cells and tissue samples. After freezing overnight, cell or tissue pellets were suspended in 300 μL of lysis buffer (150 mM Tris pH 8; 100 mM EDTA pH 8; 100 mM NaCl; 0.5% SDS) and 10 μL of Proteinase K (20 μg/μL). […] The DNA concentration was determined using a NanoDrop 2000 spectrophotometer (Thermofisher, Spain). […] Finally, the amount of platinum was determined by mass spectrometry using an ICP-MS BRUCKER 820-MS with a low-flow glass Micromist nebulizer and a double-pass spray chamber with a Peltier cooling (3° C.) and quartz torch (Bruker Corp., Billerica, MA, USA).

A further test has as its system A549 proliferating cells. Description: STORM super-resolution imaging of chromatin organization. The test is classed as cell-based, human. To be noted: Ag3-AQCs 55.61 ng/mL or AgNO3 5 μM, 30 min.
For test [1], the system named is A549 orthotopic lung cancer. Description: Orthotopic lung cancer model. The settings on record: CDDP 4 mg/kg intravenously, up to 37 days.
Protocol: (a) Tumour growth measured in vivo by luminescence (IVIS® Spectrum).
A suspension of 1×10^6 non-small cell lung carcinoma luciferase expressing cells (A549 Luc-C8 Bioware® cell line) in PBS (50 μL) was injected through the intercostal space into the left lung of athymic nude mice. During this procedure, mice were anaesthetized using 4% isoflurane inhalation. To follow tumour growth, luciferin was injected into the intraperitoneal cavity at a dose of 150 mg/kg body weight approximately 5 minutes before imaging. Luciferase bioluminescence was imaged under vaporized isofluran anaesthesia using an IVIS® Living Image® System (Caliper Life Sciences, Hopkinton, MA, USA) that allowed monitoring of both the primary tumour growth and cancer cell dissemination in a semi quantitative fashion. After in vivo imaging for several days (up to 37 days), the mice were sacrificed, and protein extracts were obtained from different organs to quantify luciferase activity.

Protocol for A549 proliferating cells: 1.5×10^4 A549 cells were plated on 8-well Lab-tek cover glass chamber (Nunc) and 24 hours later cells were synchronized in S phase by adding 0.8 mM hydroxyurea (H-8627, Sigma) to the culture medium. […] The medium was removed and replaced with complete medium containing EdU (20 μM) for 2 hours. Cells were then fixed and permeabilized with Methanol-Acetone (1:1) solution at 20° C. for 10 minutes and blocked (3% BSA+0.01% Triton X-100) for 1 hour at RT. Finally, cells were washed three times with PBS and stained with Alexa Fluor 647 following the instructions provided by the manufacturer (Click-iT® EdU Alexa Fluor®488 Imaging Kit, Thermo Fisher Scientific).
The chromatin was imaged using a commercial microscope system from Nikon Instruments (NSTORM). […]
STORM images were analysed and rendered as previously described in Bates et al. 2007. […]
Since the labelling density of the EdU was very high, all of the images were roughly normalized to the same number of localizations per μm^2 of the nucleus, by varying the number of frames used in the final reconstructed image. The percentage of non-zero pixels of the reconstructed images was then calculated in ImageJ, and the percentage of nuclear area covered by EdU also calculated. The density of chromatin per μm^2 was extracted by dividing the number of localizations (same for each recorded nucleus) over the chromatin-covered area.
Protocol for single nucleosomes: From each reaction, half of the sample was electrophoresed under non-denaturing conditions, and the gel was stained with ethidium bromide (left, upper panel) and silver (left, lower panel). The remaining portion of the sample was analysed to check that equal amounts of histones were loaded in all cases (right panel). The position of unbound DNA, assembled nucleosomes and histones are indicated. (b) Nucleosomes were incubated with etoposide or doxorubicin as in (a) or the indicated Ag3-AQC dilutions (initial concentration, AQCs 1:10=83 ng/mL). Samples were analysed by native polyacrylamide electrophoresis, and the gel was stained first with ethidium bromide (top) and subsequently with silver (bottom) to visualize histones. This image is representative of two independent experiments.
Single nucleosome preparations were obtained using the Epimark Nucleosome Assembly Kit (New England Biolabs, Ipswich, USA) following the dilution assembly protocol from the manufacturer.
For the gel shift assay, 5% non-denaturing polyacrylamide gels were prepared using TBE buffer. After a 1 hour preliminary run at 100 V, the reactions containing nucleosomes were mixed with DNA loading buffer, and the electrophoresis was performed at 100 V for 2 h. Gels were stained with ethidium bromide to visualize DNA, and the signal was captured using the Gel Doc XR system (Bio-Rad). […]

Consider `CC[N+](C)(CC)CCC[n+]1c(-c2ccccc2)c2cc(N)ccc2c2ccc(N)cc21.[I-].[I-]` [IP, Propidium iodide], for which the “Formation constant of complex with octamer” value in the test on octamer is 140000 M⁻¹.

`N.N.O=C([O-])C1(C(=O)[O-])CCC1.[Pt+2]` [CBDCA, Carboplatin]: in the test with A549 Luc-C8 cells, the IC5 was 0.25 µM; the IC25 – broadly, the concentration at which the effect reaches the 25% level – came out at 0.5 µM; the 50% inhibitory concentration (IC50) – broadly, the concentration at which inhibition is half-maximal – was determined as 1000 µM; the IC75 (commonly the concentration needed for an effect of 75%) is 2000 µM.

As for `COc1cccc2c1C(=O)c1c(O)c3c(c(O)c1C2=O)C[C@@](O)(C(=O)CO)C[C@@H]3O[C@H]1C[C@H](N)[C@H](O)[C@H](C)O1` [DOX, Doxorubicin], on single nucleosomes, the “Dissociation of single nucleosomes” value is listed as “dissociated nucleosomes”. For the same compound, the “Increase of amount of CDDP bound to DNA on co-administration with CDDP” value in the test with A549 cells is “did not increase CDDP binding to DNA”.

For `O=[N+]([O-])[O-].[Ag+]` [AgNO3, Silver nitrate], the “Chromatin compaction (STORM images)” value with A549 proliferating cells is listed as “did not affect chromatin compaction”.

On to `O=C1[O][Pt]2([NH][C@@H]3CCCC[C@H]3[NH]2)[O]C1=O` [OXA, Oxaliplatin], for which, in the test on A549 Luc-C8 cells, the IC5 was determined as 2.5 µM, the IC25 was found to be 12.5 µM, the IC50 is 50 µM and the IC75 came out at 200 µM.

In the test on A549 Luc-C8 cells, `[NH2][Pt]([NH2])([Cl])[Cl]` [CDDP, Cisplatin] came in with an IC5 of 5 µM, an IC25 of 10 µM, an IC50 of 50 µM and an IC75 of 100 µM. For the same compound, the “Tumour growth in vivo (bioluminescence)” value in test [1] was “significantly reduced the growth of tumours”.

In the case of `COc1cc([C@@H]2c3cc4c(cc3[C@@H](O[C@@H]3O[C@@H]5CO[C@@H](C)O[C@H]5[C@H](O)[C@H]3O)[C@H]3COC(=O)[C@H]23)OCO4)cc(OC)c1O` [etoposide], at single nucleosomes, the “Dissociation of single nucleosomes” value is “has no effect”.
